# Assay results: a melting point compilation (Tetko et al.; mined from patent text by program, amines drawn as free bases though some values may be those of a salt)
row,SMILES,melting point [°C]
1,CC(C)(C)NC(=O)c1cc(Cl)ccc1N,126 to 127
2,NS(=O)(=O)NC(=O)CCCCC1CCSS1 (configuration not stated),141 to 142
3,O=C1Cc2ccccc2N1C1=NCCS1,97 to 99
4,Cn1ncc(C(=O)O)c1OCc1ccccc1,117 to 122
5,COc1ccc2c(c1)CCN(Cc1cnc(C)nc1N)C2,142 to 143
6,Cc1c(C(N)=O)c(C(F)(F)F)nn1-c1c(Cl)cc(C(F)(F)F)cc1Cl,165 to 170
7,CN1C(CO)=Cc2cc(S(N)(=O)=O)sc2S1(=O)=O,144 to 146
8,CNC(=O)NC1CCC(=O)c2ccccc21 (configuration not stated),220 to 223
9,Cc1nc(C)c(-c2ccnc(Nc3cccc(CN)c3)n2)s1,183 to 184
10,Cc1nc(Cl)c(C#N)c2c1CCCC2,98
11,CN1Cc2c(C(=O)O)ncn2-c2cccnc2C1=O,292 to 295
12,O=C(NCCOc1cccnn1)C1Cc2ccccc2N1S(=O)(=O)c1ccc(-c2cccc(C(F)(F)F)c2)cc1 (configuration not stated),65 to 71
13,O=C(c1ccccc1CBr)c1ccccc1CBr,113 to 114
14,Fc1ccc(OCCCc2c[nH]cn2)cc1,135 to 137
15,CNC1=NN(C(=O)c2ccccc2)C(C)(C)S1,130 to 136
16,COCOc1ccc(C(=O)OC)c(O)c1C,73.8 to 74
17,O=C(O)c1cc(-n2nc3n(c2=O)CCCC3)c(F)cc1Cl,91 to 94
18,Cc1c(Cl)c(Cl)c(Cl)c(Cl)c1C=O,187 to 194
19,Cc1cc(C(N)=O)cc(C)c1C(=O)O,238 to 240
20,CCOC(=O)c1sc(SC)c2c1CCc1nc(C)oc1-2,131 to 132
21,Cc1ccc2c(cc(C(=O)O)n2CCCC#N)c1C,175
22,CC(=O)SCC(Cc1c(Cl)cccc1Cl)C(=O)NN1CCOCC1 (configuration not stated),175

row,SMILES,melting point [°C]
1,NC(=O)c1c(Cl)cc(Cl)c(C(=O)O)c1Cl,280
2,CNc1ccc([N+](=O)[O-])c(C(=O)NCC2CCN(C(c3ccccc3)c3ccccc3)CC2)c1,185
3,c1ccc(-c2ccc3nncn3n2)cc1,138 to 139
4,CCCCCCCCCCCCCCCCCCNC(=O)OCCN1CCCC1,57
5,CC(C)Cc1c2c(nn1C)c(N)nc1ncccc12,> 250
6,NC(=O)C1CCc2c(C(=O)c3cccs3)cccc21 (configuration not stated),164 to 166
7,CC(C)(C)OC(=O)N1CCCN(c2cc[nH]c(=S)c2C#N)CC1,203 to 205
8,CCOC(=O)/C=C/c1cnn(C)c1-c1cccnc1,159 to 160
9,CC(C)(C)SCC1(C(=O)O)Cc2ccccc2C1,158 to 163
10,CC(C)(C)c1cc(Cl)n2ncnc2n1,285 to 286
11,O=C1CCSC(=S)N1c1ccccn1,157
12,CC(C)C[C@@H](CO)NC(=O)[C@@H](NC(=O)c1ccc(C=O)o1)C(C)C,39 to 41
13,O=C(OCN1C(=O)C2CCCN2S1(=O)=O)c1c(Cl)cccc1Cl (configuration not stated),92 to 93.5
14,N#CN=C(Nc1cccnc1)NC(NC(=O)c1ccc(Cl)cc1)C(Cl)(Cl)Cl (configuration not stated),126 to 128
15,CCOC(=O)C(CC(=O)c1ccccc1Cl)(NC(C)=O)C(=O)OCC,157 to 158
16,O=C(O)c1csc(Oc2cccc(Cl)c2)n1,135 to 137
17,CC(C)(C)c1cc(CNn2ccnc2)cc(C(C)(C)C)c1O,171 to 174
18,CN1CC(CCNC(=S)NC(=O)c2ccccc2)CC2c3cccc4[nH]cc(c34)CC21 (configuration not stated),205 to 207
19,CN1C(=S)[C@H](NC(=O)OCc2ccccc2)N=C(c2ccccc2)c2ccccc21,128 to 131
20,O=C(C=Cc1cccs1)C=Cc1cccs1,115 to 117
21,CCOC(=O)C(=C1SCSCS1)c1ccc(Oc2ccccc2)cc1,134 to 135
22,Cc1ccc(C(=O)Nc2ccccc2C#N)c([N+](=O)[O-])c1,230 to 232

# Second part, the molecule after the results:
row,melting point [°C],SMILES
1,183 to 185,O=C(NCCCOc1ccc(-n2ccnc2)cc1)c1ccc(Br)cc1
2,149 to 150,O=c1oc2ccc(Cc3ccccc3)cc2c(O)c1CCCOc1ccccc1
3,> 300,O=C(O)c1cnc2c3cccc([N+](=O)[O-])c3ccn2c1=O
4,78 to 80,COc1cc(C(=O)c2ccccc2)cc([N+](=O)[O-])c1OC
5,221 to 225,CS(=O)(=O)Nc1ccc(NC(=O)C(=O)N2CCC(Cc3ccccc3)CC2)cc1
6,120 to 121,CCCCN(C)C(=O)CS(=O)CCCCCOc1ccc(C2=C(c3ccccc3)CCCc3ccccc32)cc1 (configuration not stated)
7,152 to 153,Cc1oc(-c2ccccc2)nc1COc1cc(COc2ccccc2CC(=O)O)on1
8,78 to 80,C#CC[C@@H](NCCCN1C(=O)c2ccccc2C1=O)c1nc2cc(Cl)ccc2c(=O)n1Nc1ccccc1
9,242 to 245,Cc1nnc2ccc(-c3cccc(NC(=O)C4CCC4)c3)nn12
10,81 to 83,Cc1c(OCc2ccccc2)c(=O)ccn1CCC(=O)O
11,111 to 112,COc1ccc(-c2c3cccc(C(F)(F)F)c3nn2CC(C)C)c(OC)c1
12,100 to 101,CC(C)(COC(=O)c1ccccc1)c1cc(OS(C)(=O)=O)ccc1OC(=O)c1ccccc1
13,121 to 122,COc1ccc(C2Sc3cccc4cccc(c34)N(CCN(C)C)C(=O)C2O)cc1 (configuration not stated)
14,181 to 182,OCc1cccc(-c2ccc3nc(-c4ccc(Cl)cc4)cn3c2)c1
15,180 to 183,COc1nc(C)cnc1NS(=O)(=O)c1cccnc1-c1ccc(I)cc1
16,63 to 64,CCCCc1c(/C=C/C(=O)OC)cc(OC)c2ccccc12
17,239 to 241,COc1cc2c(=O)n(CCN(C)C)c3c(cnc4cccc(N)c43)c2cc1OC
18,140 to 141,CCCc1c(C(N)=O)sc(SC)c1-c1oncc1-c1ccccc1
19,137 to 138,Cc1nc2cc3c(cc2s1)C1(CO3)C(=O)N(CCC(C)C)c2ccccc21 (configuration not stated)
20,218 to 220,O=S(=O)(NCCN1CCOCC1)c1ccc(-c2n[nH]c3c2Cc2ccccc2-3)cc1
21,176 to 177,CCNc1nc(-c2ccc(F)cc2C)c2ccc(=O)n(-c3ccccc3F)c2n1
22,235 to 238,CC=CN(C=CC)c1ccc2[nH]c3cnc(C(=O)OCC)cc3c2c1
23,159 to 160,COC(=O)c1ccc(NC(=O)c2c(-c3ccccc3)c(-c3ccc(F)cc3)n(CC[C@@H]3C[C@H](CC(=O)OC(C)(C)C)OC(C)(C)O3)c2C(C)C)cc1
24,130 to 132,COC(=O)N1C(=S)NC(C)=C(C(=O)OC(C)C)C1c1cccc([N+](=O)[O-])c1 (configuration not stated)
25,215 to 217,Cn1nc(O[C@@H]2c3cc(C#N)ccc3OC(CF)(CF)[C@H]2O)ccc1=O (relative stereo)
26,> 270,CCn1c(=O)c2[nH]c(/C=C/c3ccc(O)cc3)nc2n(CC)c1=O
27,116 to 119,O=C(O)c1cccc(Oc2ccc(C(F)(F)F)cc2Cl)c1

row,melting point [°C],SMILES
1,145 to 146,Cc1cc(-n2nc(C(F)F)cc2-c2ccc(S(C)(=O)=O)cc2)ccc1Cl
2,180 to 183,CCCc1c(OCCCOc2ccc(C(=O)O)cc2)ccc(C(C)=O)c1O
3,> 270,COC(=O)/C=C/c1ccc(-c2nc3c(=O)n(CC4CCCCC4)c(=O)n(CC4CCCCC4)c3[nH]2)cc1
4,219,Cc1cc2nc3c4cc([N+](=O)[O-])ccc4n(CCN(C)C)c3nc2cc1C
5,124 to 131,COc1cc(C(=O)NS(=O)(=O)c2ccccc2C)ccc1Cc1cn(C)c2ccc(CCNC(=O)N(C)C)cc12
6,224 to 227,O=C(NC1(C2CC2)CC1)c1c(NC(=O)c2cc(C(F)(F)F)nn2-c2ncccc2Cl)ccc2cn[nH]c12
7,> 300,O=C(Nc1ccc(C(=O)O)cc1)OCc1cn(-c2cc3cc(C(=O)O)c(=O)[nH]c3cc2[N+](=O)[O-])cn1
8,151 to 153,NC(=O)Cc1ccc(-c2ccc(C(CC3CCOCC3)c3ccc(S(=O)(=O)C4CC4)cc3)[nH]2)nc1 (configuration not stated)
9,175 to 177,CCCCN(Cc1ccc(-c2ccccc2-c2nnn[nH]2)cc1)c1nc(C)ccc1C(=O)O
10,234 to 236,O=C1Nc2ccc(NC(=O)C(=O)N3CCC(Cc4ccccc4)CC3)cc2C1=O
11,166,COc1cc(SC2SCC(O)C(O)C2O)cc(OC)c1OC (configuration not stated)
12,141 to 142,O=C(O)c1ccc(CCCc2ccc(Br)cc2OCc2ccccc2)cc1
13,216 to 218,Nc1ccc(S(=O)(=O)c2cc(C3CC3)nc(N3CCCC3)c2)cc1
14,120 to 122,Cc1cn(C2OC(COC(=O)c3ccccc3)C(OC(=O)c3ccccc3)C2F)c(=O)[nH]c1=O (configuration not stated)
15,150,COC(=O)C(C)(C)N1CCC(N(Cc2ccc(-c3ccc(C(F)(F)F)cc3)cc2)C(=O)Cn2c(CCc3cccc(F)c3F)nc(=O)c3cccnc32)CC1
16,116 to 123,Cc1cc(Br)c2ncn([C@H](C)[C@](O)(Cn3cncn3)c3ccc(F)cc3F)c(=O)c2c1
17,222 to 224,CC(C)(CCCC(=O)O)c1ccc2c(c1)C(=O)c1ccc(C(C)(C)CCCC(=O)O)cc1C2=O
18,205 to 206,COCOc1ccc(Cl)cc1-c1cc(-c2cccc([N+](=O)[O-])c2)c(C#N)c(NC(=O)c2ccccc2)n1
19,> 300,COc1ccc(-c2[nH]nc3c2C(=O)c2c(NC(=O)CN4CCC(CN)CC4)cccc2-3)cc1
20,> 300,COC1C(CO)OC(n2c3ccc(C=O)cc3c3c4c(c5c6cc(C=O)ccc6[nH]c5c32)C(=O)NC4=O)C(O)C1O (configuration not stated)
21,97 to 99,O=c1cc(NCCN2CCC(c3noc4cc(F)ccc34)CC2)cn[nH]1
22,152 to 155,CN1CCN(CC2=NC(NC(=O)Nc3cccc(C#N)c3)C(=O)N(CC(=O)N(C)c3ccccc3)c3ccccc32)CC1 (configuration not stated)
23,207 to 210,O=C(O)COc1cccc2c1Cc1sc(SCC(c3ccccc3)c3ccccc3)nc1-2
24,190 to 195,O=C(O)Cc1c(C(=O)O)c2cc(Oc3cccc(Cl)c3)ccc2n1-c1ccc(OC(F)(F)F)cc1
25,139 to 141,CCCCCCCC(=O)NC(=O)OCc1nc(C(C)C)c(Sc2cc(Cl)cc(Cl)c2)n1Cc1ccncc1
26,62 to 64,Cc1nsc(CCCOc2c(C)cc(-c3noc(C(F)F)n3)cc2C)n1
